This is an account of results in patent publication US9512108B2, “9,9,10,10-Tetrafluoro-9,10-dihydrophenanthrene hepatitis C virus inhibitor and application thereof” (NANJING SANHOME PHARMACEUTICAL CO., LTD., priority 2013, dated 2016).

Format in all cases: cell-based
A short description of series [1]: Cell viability test (CellTiter-Fluor) in HCV 1a replicon cells. As to conditions: human, Huh7 cells stably transfected with HCV genotype 1a replicon; HCV 1a replicon Huh7 cells, 3 days culture; read-out: CC50 (half cytotoxic concentration). The procedure:
(§1) 4) Cell viability test: after adding detection reagent for fluorescence assay of cell growth to each well and culturing the cells in a 37° C., 5% CO2 incubator for one hour, detecting the fluorescence signal values using the multimode microplate reader, with the raw data (RFU) being used for calculation of the cytotoxicity of the compounds;
(§2) 6) Data processing: processing the raw data using the following formula into the inhibition percentage of the compound against HCV replicon (Inhibition %) and the percentage of cell viability (Viability %): Inhibition %=(RLUZPE−RLUCPD)/(RLUZPE−RLUHPE)×100 Viability %=(RFUCPD−RFUHPE)/(RFUZPE−RFUHPE)×100 wherein CPD: the fluorescence signal value of the well of the compound; ZPE (zero percent effect): the fluorescence signal value of the zero percent effect control; HPE (hundred percent effect): the fluorescence signal value of the hundred percent effect control.
(§3) The Inhibition % and Viability % were introduced into GraphPad Prism software for data processing, respectively, to obtain the half effective concentration EC50 of the compound against HCV replicon and the half cytotoxic concentration CC50.
(§4) HCV 1a replicon cells, i.e., Huh7 cell line stably transfected with HCV genotype 1a replicon (provided by WuXi AppTec (Shanghai) Co., Ltd.) were used as the experimental cells. As described above for the HCV 1b replicon cell system, the HCV genotype 1a replicon cell systems were similarly prepared.
(§5) The anti-HCV-1a activities of the compounds of the present invention were tested according to the method for testing the anti-HCV-1b replicon activity in Experimental Example 1.

The next series concerns HCV genotype 1b replicon. Briefly: Anti-HCV-1b replicon activity (luciferase, Bright-Glo). The note with it: Hepatitis C virus, Huh-7, 72 h, read-out: EC50 against HCV-1b replicon. The procedure: (§6) Each of the compounds prepared in the above examples of the present invention was dissolved at 10 mM in DMSO, then diluted to 50 μM with DMEM complete medium, then diluted to 20 nM with complete medium containing 0.5% DMSO, and then serially diluted by 3-fold, to obtain a total of 10 concentrations.
(§7) HCV 1b replicon cells, i.e., Huh7 cell line stably transfected with HCV genotype 1b replicon, were provided by WuXi AppTec (Shanghai) Co., Ltd. Specific preparation methods of Huh7 lb replicon cell system can be found in Lohmann V, Korner F, Koch J, Herian U, Theilmann L, Bartenschlager R., Replication of subgenomic hepatitis C virus RNAs in a hepatoma cell line, Science 285 (5424): 110-113 (1999).
(§8) 1) Preparation of compounds: adding 75 μl of the compounds of the present invention at the above concentration gradient to a 96-well plate using POD810 system, with each concentration for each compound in duplicate;
(§9) 2) Preparation of cells: collecting HCV 1b replicon cells in logarithmic phase and resuspending them in DMEM complete medium, and then adding 75 μl of the cell suspension to each well of the above 96-well plate (8×10^3 cells/well); at the same time, establishing zero percent effect (ZPE) control group and hundred percent effect (HPE) control group, with ZPE group using complete culture medium containing 0.5% DMSO instead of the compound, and the HPE group merely containing DMEM medium in the wells.
(§10) 3) Cell culture: placing the 96-well plate in a 37° C., 5% CO2 incubator and culturing for 3 days.
(§11) 5) Anti-HCV replicon activity assay: adding luciferase luminescence substrate Bright-Glo to each well, and detecting luminescence signal values using the multimode microplate reader within 5 min, with the raw data (RLU) being used for calculation of the anti-HCV activities of the compounds;
as §2, §3

The next series concerns HCV genotype 1a replicon. The experiment in a line: Anti-HCV-1a replicon activity (luciferase, Bright-Glo). As to conditions: Hepatitis C virus, Huh-7, 72 h, read-out: EC50 against HCV-1a replicon. The procedure:
as §8, §9, §10, §11, §2, §3, §4, §5

Series [2] in a line: Cell viability test (CellTiter-Fluor) in HCV 1b replicon cells. As to conditions: human, HCV 1b replicon Huh7 cells, 3 days culture, read-out: CC50 (half cytotoxic concentration). The procedure:
as §6, §7, §8, §9, §10, §1, §2, §3

[3] abbreviates: Huh7 cells stably transfected with HCV genotype 1b replicon.

pEC50: −log10 of the molar value.

Turning to `COC(=O)N[C@H](C(=O)N1CCC[C@H]1c1ncc(-c2ccc3c(c2)C(F)(F)C(F)(F)c2cc(-c4cnc([C@@H]5CCCN5C(=O)[C@@H](NC(=O)OC)C(C)C)[nH]4)ccc2-3)[nH]1)C(C)C` [Example 1, Dimethyl (2S,2′S)-1,1′-((2S,2′S)-2,2′-(5,5′-(9,9,10,10-tetrafluoro-9,10-dihydrophenanthren-2,7-diyl)bis(1H-imidazol-5,2-diyl))bis(pyrrolidin-2,1-diyl))bis(3-methyl-1-oxobutan-2,1-diyl)dicarbamate], the CC50 at 3 days in series [1] and in series [2] (setting [3]) was over 10 nM each time. The results for the pEC50 in the series with HCV genotype 1b replicon and in the series with HCV genotype 1a replicon were 11.34 and 9.72, respectively.
As for `COC(=O)N[C@H](C(=O)N1CCCC1c1ncc(-c2ccc(-c3ccc4c(c3)C(F)(F)C(F)(F)c3cc(-c5ccc(-c6cnc([C@@H]7CCCN7C(=O)[C@@H](NC(=O)OC)C(C)(C)C)[nH]6)cc5)ccc3-4)cc2)[nH]1)C(C)(C)C` (stereo partly drawn) [Example 2, dimethyl (2S,2′S)-1,1′-((2S,2′S)-2,2′-(5,5′-(4,4′-(9,9,10,10-tetrafluoro-9,10-dihydrophenanthren-2,7-diyl)bis(4,1-phenylene))bis(1H-imidazol-5,2-diyl))bis(pyrrolidin-2,1-diyl))bis(3,3-dimethyl-1-oxobutan-2,1-diyl)dicarbamate], the pEC50 with HCV genotype 1b replicon is 10.77. Further, the CC50 at 3 days in series [2] (setting [3]) was over 10 nM.
With `COC(=O)N[C@H](C(=O)N1[C@@H]2CC[C@@H](C2)[C@H]1c1ncc(-c2ccc3c(c2)C(F)(F)C(F)(F)c2cc(-c4cnc([C@@H]5[C@H]6CC[C@H](C6)N5C(=O)[C@@H](NC(=O)OC)C(C)C)[nH]4)ccc2-3)[nH]1)C(C)C` [Example 3, Dimethyl (2S,2′S)-1,1′-((1R,1′R,3S,3′S,4S,4′S)-3,3′-(5,5′-(9,9,10,10-tetrafluoro-9,10-dihydrophenanthren-2,7-diyl)bis(1H-imidazol-5,2-diyl))bis(2-azabicyclo[2.2.1]heptan-3,2-yl))bis(3-methyl-1-oxobutan-2,1-diyl)dicarbamate], the pEC50 in the series with HCV genotype 1b replicon was 10.77. Also, in series [2], the CC50 at 3 days is over 10 nM.
Regarding `COC(=O)N[C@H](C(=O)N1[C@@H]2CC[C@@H](C2)[C@H]1c1ncc(-c2ccc3c(c2)C(F)(F)C(F)(F)c2cc(-c4cnc([C@@H]5[C@H]6CC[C@H](C6)N5C(=O)[C@@H](NC(=O)OC)C(C)(C)C)[nH]4)ccc2-3)[nH]1)C(C)(C)C` [Example 4, Dimethyl (2S,2′S)-1,1′-((1R,1′R,3S,3′S,4S,4′S)-3,3′-(5,5′-(9,9,10,10-tetrafluoro-9,10-dihydrophenanthren-2,7-diyl)bis(1H-imidazol-5,2-diyl))bis(2-azabicyclo[2.2.1]heptan-3,2-yl))bis(3,3-dimethyl-1-oxobutan-2,1-diyl)dicarbamate], the pEC50 in the series on HCV genotype 1b replicon was 10.33. Moreover, the CC50 at 3 days in series [2] (setting [3]) was over 10 nM.
On to `COC(=O)N[C@H](C(=O)N1[C@@H]2CC[C@@H](C2)[C@H]1c1ncc(-c2ccc3c(c2)C(F)(F)C(F)(F)c2cc(-c4cnc([C@@H]5[C@H]6CC[C@H](C6)N5C(=O)[C@@H](NC(=O)OC)[C@@H](C)O)[nH]4)ccc2-3)[nH]1)[C@@H](C)O` [Example 5, Dimethyl (2S,2′S,3R,3′R)-1,1′-((1R,1′R,3S,3′S,4S,4′S)-3,3′-(5,5′-(9,9,10,10-tetrafluoro-9,10-dihydrophenanthren-2,7-diyl)bis(1H-imidazol-5,2-diyl))bis(2-azabicyclo[2.2.1]heptan-3,2-diyl))bis(3-hydroxy-1-oxobutan-2,1-diyl)dicarbamate], for which the pEC50 with HCV genotype 1b replicon is 10.39. Further, the CC50 at 3 days in series [2] was over 10 nM.
For `COC(=O)N[C@H](C(=O)N1[C@@H]2CC[C@@H](C2)[C@H]1c1ncc(-c2ccc3c(c2)C(F)(F)C(F)(F)c2cc(-c4cnc([C@@H]5[C@H]6CC[C@H](C6)N5C(=O)[C@@H](NC(=O)OC)[C@@H](C)OC)[nH]4)ccc2-3)[nH]1)[C@@H](C)OC` [Example 6, Dimethyl (2S,2′S,3R,3′R)-1,1′-((1R,1′R,3S,3′S,4S,4′S)-3,3′-(5,5′-(9,9,10,10-tetrafluoro-9,10-dihydrophenanthren-2,7-diyl)bis(1H-imidazol-5,2-diyl))bis(2-azabicyclo[2.2.1]heptan-3,2-diyl))bis(3-methoxy-1-oxobutan-2,1-diyl)dicarbamate], the pEC50 in the series with HCV genotype 1b replicon was 10.85. In addition, the CC50 at 3 days in series [2] (setting [3]) is over 10 nM.
The matching figures for `COC(=O)N[C@H](C(=O)N1CCC[C@H]1c1ncc(-c2ccc3c(c2)C(F)(F)C(F)(F)c2cc(-c4cnc([C@@H]5CCCN5C(=O)[C@@H](NC(=O)OC)C(C)(C)C)[nH]4)ccc2-3)[nH]1)C(C)(C)C` [Example 7, Dimethyl (2S,2′S)-1,1′-((2S,2′S)-2,2′-(5,5′-(9,9,10,10-tetrafluoro-9,10-dihydrophenanthren-2,7-diyl)bis(1H-imidazol-5,2-diyl))bis(pyrrolidin-2,1-diyl))bis(3,3-dimethyl-1-oxobutan-2,1-diyl)dicarbamate]: 11.20 and over 10 nM.
On to `COC(=O)N[C@H](C(=O)N1CCC[C@H]1c1ncc(-c2ccc3c(c2)C(F)(F)C(F)(F)c2cc(-c4cnc([C@@H]5CCCN5C(=O)[C@@H](NC(=O)OC)[C@@H](C)O)[nH]4)ccc2-3)[nH]1)[C@@H](C)O` [Example 8, Dimethyl ((2S,2′S,3R,3′R)-((2S,2′S)-2,2′-(5,5′-(9,9,10,10-tetrafluoro-9,10-dihydrophenanthren-2,7-diyl)bis(1H-imidazol-5,2-diyl))bis(pyrrolidin-2,1-diyl))bis(3-hydroxy-1-oxobutan-2,1-diyl))dicarbamate], for which the pEC50 in the series with HCV genotype 1b replicon was 10.24. The CC50 at 3 days in series [2] (setting [3]) is over 10 nM.
For `COC(=O)N[C@H](C(=O)N1CC2(C[C@H]1c1ncc(-c3ccc4c(c3)C(F)(F)C(F)(F)c3cc(-c5ccc6nc([C@@H]7CCCN7C(=O)[C@@H](NC(=O)OC)C(C)C)[nH]c6c5)ccc3-4)[nH]1)OCCO2)C(C)C` [Example 11, Methyl N-((2S)-1-((S)-2-(6-(7-((S)-2-(7-((S)-2-((methoxycarbonyl)amino)-3-methylbutanoyl)-1,4-dioxa-7-azaspiro[4.4]nonan-8-yl)-1H-imidazol-5-yl)-9,9,10,10-tetrafluoro-9,10-dihydrophenanthren-2-yl)-1H-benzo[d]imidazol-2-yl)pyrrolidin-1-yl)-3-methyl-1-oxobutan-2-yl)carbamate], the CC50 at 3 days in series [1] and in series [2] (setting [3]) was over 10 nM in each case. Also, the pEC50 in the series on HCV genotype 1b replicon is 11.22; in the series with HCV genotype 1a replicon it was 10.10.
For the molecule `COC(=O)N[C@H](C(=O)N1CC2(CC2)C[C@H]1c1nc(-c2ccc3c(c2)C(F)(F)C(F)(F)c2cc(-c4ccc5nc([C@@H]6CCCN6C(=O)[C@@H](NC(=O)OC)C(C)C)[nH]c5c4)ccc2-3)c[nH]1)C(C)C` [Example 12, Methyl N-((2S)-1-((S)-2-(6-(7-((S)-2-(5-((S)-2-((methoxycarbonyl)amino)-3-methylbutanoyl)-5-azaspiro[2.4]heptan-6-yl)-1H-imidazol-5-yl)-9,9,10,10-tetrafluoro-dihydrophenanthren-2-yl)-1H-benzo[d]imidazol-2-yl)pyrrolidin-1-yl)-3-methyl-1-oxobutan-2-yl)carbamate], the CC50 at 3 days in series [1] and in series [2] (setting [3]) was over 10 nM throughout. The pEC50 with HCV genotype 1b replicon was 11.10; in the series with HCV genotype 1a replicon, 10.21.
Regarding `COC(=O)N[C@H](C(=O)N1CCC[C@H]1c1ncc(-c2ccc3c(c2)C(F)(F)C(F)(F)c2cc(-c4cnc([C@@H]5CCCN5C(=O)[C@@H](NC(=O)OC)[C@@H](C)OC)[nH]4)ccc2-3)[nH]1)[C@@H](C)OC` [Example 13], the negative-log EC50 (pEC50) in the series on HCV genotype 1b replicon is 10.25. The CC50 at 3 days in series [2] (setting [3]) was over 10 nM.
